Results as given in the NIST ThermoML archive (doi:10.1016/j.jct.2014.03.023).
± gives the expanded uncertainty stated by the source.

Legend:
[1] = wn = mass fraction of the nth substance listed; settings: Pendant drop shape
[2] = molar heat capacity at constant pressure; wn = mass fraction of the nth substance listed; settings: 101 kPa, Liquid, Small sample (50 mg) DSC

CC[n+]1ccc(C)cc1.O=S(=O)([N-]S(=O)(=O)C(F)(F)F)C(F)(F)F + CCn1cc[n+](C)c1.N#CN=C=[N-]
Settings	molar heat capacity at constant pressure, w2 = 0 [J/K/mol]	molar heat capacity at constant pressure, w2 = 0.25 [J/K/mol]	molar heat capacity at constant pressure, w2 = 0.5 [J/K/mol]	molar heat capacity at constant pressure, w2 = 0.75 [J/K/mol]	surface tension liquid-gas, w2 = 0 [mN/m]	surface tension liquid-gas, w2 = 0.25 [mN/m]	surface tension liquid-gas, w2 = 0.5 [mN/m]	surface tension liquid-gas, w2 = 0.75 [mN/m]
[1], 298.2 K	–	–	–	–	24.3 ± 0.4	40.8 ± 0.7	45.8 ± 0.7	52 ± 0.8
[1], 303.2 K	–	–	–	–	23.9 ± 0.4	40.3 ± 0.6	45.3 ± 0.7	51.5 ± 0.8
[1], 313.2 K	–	–	–	–	23.1 ± 0.4	39.2 ± 0.6	44.1 ± 0.7	50.3 ± 0.8
[1], 323.2 K	–	–	–	–	22.2 ± 0.4	38 ± 0.6	42.8 ± 0.7	49 ± 0.8
[2], 296.2 K	627 ± 27	504 ± 21	421 ± 18	363 ± 15	–	–	–	–
[2], 300.2 K	634 ± 27	509 ± 22	425 ± 18	366 ± 16	–	–	–	–
[2], 304.2 K	637 ± 27	512 ± 22	427 ± 18	369 ± 16	–	–	–	–
[2], 308.2 K	640 ± 27	514 ± 22	430 ± 18	371 ± 16	–	–	–	–
[2], 312.2 K	644 ± 27	517 ± 22	433 ± 18	374 ± 16	–	–	–	–
[2], 316.2 K	647 ± 27	520 ± 22	436 ± 19	376 ± 16	–	–	–	–
[2], 320.2 K	649 ± 28	522 ± 22	438 ± 19	378 ± 16	–	–	–	–
[2], 324.2 K	652 ± 28	524 ± 22	441 ± 19	381 ± 16	–	–	–	–
[2], 328.2 K	655 ± 28	528 ± 22	444 ± 19	383 ± 16	–	–	–	–
[2], 332.2 K	659 ± 28	532 ± 23	448 ± 19	387 ± 16	–	–	–	–
[2], 336.2 K	665 ± 28	537 ± 23	451 ± 19	390 ± 17	–	–	–	–
[2], 340.2 K	669 ± 28	541 ± 23	455 ± 19	393 ± 17	–	–	–	–
[2], 344.2 K	674 ± 29	546 ± 23	459 ± 19	397 ± 17	–	–	–	–
[2], 348.2 K	679 ± 29	550 ± 23	463 ± 20	400 ± 17	–	–	–	–
[2], 352.2 K	685 ± 29	555 ± 24	467 ± 20	404 ± 17	–	–	–	–
[2], 356.2 K	691 ± 29	560 ± 24	472 ± 20	407 ± 17	–	–	–	–
[2], 360.2 K	697 ± 30	565 ± 24	477 ± 20	411 ± 17	–	–	–	–
[2], 364.2 K	703 ± 30	570 ± 24	481 ± 20	415 ± 18	–	–	–	–
[2], 368.2 K	708 ± 30	576 ± 24	486 ± 21	419 ± 18	–	–	–	–
[2], 372.2 K	715 ± 30	584 ± 25	492 ± 21	424 ± 18	–	–	–	–
